From patent publication US11466010B2, “Toll-like receptor 8 (TLR8) specific antagonists and methods of making and uses thereof” (The Regents of the University of Colorado, a body corporate, priority 2017, dated 2022)

How the values were obtained:
human TLR8 transgene = biological target: T1, human TLR8 transgene (Homo sapiens, UniProt Q9NR97); experiment: IL-12p40 production in splenocytes from hTLR8tg/TLR7-KO mice, TLR8 agonist ORN8L; assay type: cell-based, mouse; conditions: ORN8L 100 ug/mL, 48 hours
T1 construct: expressed in transfected cells; host or cells: primary splenocytes from hTLR8tg/TLR7-KO mice
T1 sequence (Q9NR97 27-1041): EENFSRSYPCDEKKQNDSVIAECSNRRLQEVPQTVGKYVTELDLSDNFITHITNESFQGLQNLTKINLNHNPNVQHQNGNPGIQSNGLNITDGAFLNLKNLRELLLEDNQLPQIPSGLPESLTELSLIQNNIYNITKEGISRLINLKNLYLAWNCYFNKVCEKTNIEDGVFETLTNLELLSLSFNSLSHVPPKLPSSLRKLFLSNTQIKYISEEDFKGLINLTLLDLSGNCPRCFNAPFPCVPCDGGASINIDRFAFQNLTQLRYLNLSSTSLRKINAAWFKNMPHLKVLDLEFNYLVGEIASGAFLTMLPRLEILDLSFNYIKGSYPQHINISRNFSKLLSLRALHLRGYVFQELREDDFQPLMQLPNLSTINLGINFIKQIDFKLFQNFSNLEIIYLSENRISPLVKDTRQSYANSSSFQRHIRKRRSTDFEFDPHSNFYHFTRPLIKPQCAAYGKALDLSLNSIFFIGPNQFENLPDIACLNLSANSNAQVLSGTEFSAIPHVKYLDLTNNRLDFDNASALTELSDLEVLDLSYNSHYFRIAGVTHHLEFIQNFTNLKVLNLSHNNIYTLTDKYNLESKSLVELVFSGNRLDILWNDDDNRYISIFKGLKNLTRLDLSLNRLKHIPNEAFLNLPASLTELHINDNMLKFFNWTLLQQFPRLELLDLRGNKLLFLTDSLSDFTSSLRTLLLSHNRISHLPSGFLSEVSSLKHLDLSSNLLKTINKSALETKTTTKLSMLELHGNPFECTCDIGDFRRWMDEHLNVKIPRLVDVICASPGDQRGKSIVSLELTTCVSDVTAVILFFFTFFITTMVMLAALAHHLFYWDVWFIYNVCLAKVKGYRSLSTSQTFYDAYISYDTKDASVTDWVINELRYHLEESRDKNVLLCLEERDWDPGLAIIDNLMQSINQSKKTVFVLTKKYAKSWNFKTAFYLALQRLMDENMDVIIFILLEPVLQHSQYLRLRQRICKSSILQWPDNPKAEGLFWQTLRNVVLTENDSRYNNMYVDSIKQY
Description: Activity on primary mouse splenocytes: To assess TLR8 and TLR9 activity, spleens were isolated from TLR7 knock-out mice harboring a human TLR8 transgene (hTLR8tg/TLR7-KO). Splenocytes were prepared by dissociation through a cell strainer and removal of red blood cells with lysis buffer. Splenocytes were incubated with a dilution series of compounds and a constant amount of a TLR8 agonist (RNA oligonucleotide ORN8L) or a TLR9 agonist (CpG-containing phosphorothioate DNA oligonucleotide 1018). After 48 hours, culture supernatants were collected and analyzed for IL-12p40 production. Curves represent activity from a single spleen.

[1] = test system: TLR8 downstream proteins (p65, p-IRAK4, TRAF3, TRIF, IRF3); experiment: Immunoblotting of TLR downstream signaling proteins in THP-1 cells treated with R848; assay type: cell-based, human
Description: Immunoblotting: THP-1 cells were seeded in 6-well plates with a density of 2×10^6 cells/well in RPMI 1640 medium supplemented with 10% FBS, 100 U/mL penicillin, 100 μg/mL streptomycin (PenStrep), 2 mM L-glutamine, and 0.05 mM 2-mercaptoethanol. THP-1 cells were treated with phorbol-12-myristate-13-acetate (PMA) (100 ng/mL) and incubated in humidified incubators containing 5% CO2 at 37° C. for 24 h. […] After incubation of 2 h, THP-1 cells were collected, nuclear protein fraction was extracted using NE-PER Nuclear and Cytoplasmic Extraction kit (Thermo Fisher Scientific). BCA assay was then used to determine protein concentration. Protein samples were loaded and run in 10% Tris-glycine SDS-PAGE, and then transferred onto a nitro-cellulose membrane (BioRad) using electroblotting. P65 (CST; 8242) (1:1000) was then used as primary antibody, and peroxidase-conjugated AffiniPure Goat Anti-Rabbit IgG (H+L) antibody (Jackson Immuno Research; 111-035-144) (1:10000) as secondary antibody, then blots were visualized using Thermo SuperSignal West Pico kit (Thermo Fisher Scientific). Lamin A/C (CST; 2032) were used as internal controls for nuclear fractions.
Next, the inventors carried out on-target validation for CU-CPT9a. […] By contrast, the expression of TRIF and IRF3 (cytoplasmic and nuclear) were only responsive to TLR4 and TLR3, independent of TLR8.

[2] = test system: TNF-α production in PBMCs from RA patients; experiment: TNF-α level in PBMCs harvested from RA patients; assay type: cell-based, human; conditions: PBMCs from RA patients and one AOSD patient; dose-dependent
TLR8 = biological target: T2, TLR8 (Homo sapiens, UniProt Q9NR97); experiment: Gel filtration chromatography of TLR8 dimerization; assay type: binding; conditions: diluted TLR8, dose-dependent
T2 construct: hTLR8, residues 27-827; made in house
T2 sequence (Q9NR97 27-827): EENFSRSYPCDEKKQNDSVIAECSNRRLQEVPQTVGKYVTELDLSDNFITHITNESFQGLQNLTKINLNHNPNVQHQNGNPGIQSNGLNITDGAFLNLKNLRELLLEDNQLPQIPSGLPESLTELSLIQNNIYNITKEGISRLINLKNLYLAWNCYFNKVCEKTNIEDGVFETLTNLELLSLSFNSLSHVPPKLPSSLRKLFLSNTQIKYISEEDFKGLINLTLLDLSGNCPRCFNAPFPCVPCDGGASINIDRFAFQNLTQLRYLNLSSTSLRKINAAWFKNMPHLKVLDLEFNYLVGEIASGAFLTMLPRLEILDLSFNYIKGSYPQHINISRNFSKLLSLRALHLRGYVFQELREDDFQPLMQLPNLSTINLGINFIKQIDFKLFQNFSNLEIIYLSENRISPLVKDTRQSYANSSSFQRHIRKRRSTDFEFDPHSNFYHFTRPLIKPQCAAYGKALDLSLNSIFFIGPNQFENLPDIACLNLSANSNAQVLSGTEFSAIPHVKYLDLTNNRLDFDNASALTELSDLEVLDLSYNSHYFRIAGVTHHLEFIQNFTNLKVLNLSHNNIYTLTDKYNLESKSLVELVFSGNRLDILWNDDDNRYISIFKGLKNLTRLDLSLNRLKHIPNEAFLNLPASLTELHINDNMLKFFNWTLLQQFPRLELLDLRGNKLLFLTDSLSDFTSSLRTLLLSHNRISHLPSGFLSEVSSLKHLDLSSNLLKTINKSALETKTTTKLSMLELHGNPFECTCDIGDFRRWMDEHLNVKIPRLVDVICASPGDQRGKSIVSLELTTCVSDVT
Description: Gel filtration chromatography with diluted TLR8 proteins, in which TLR8 exists as a monomer, was conducted to determine the dimerization state of TLR8 in the absence and presence of different ligands (FIGS. 10A and 10B).

SMILES	IL-12p40 production as a monitor of TLR8 signaling (human TLR8 transgene)	nuclear NF-κB ([1]; 500 nM)	R848-induced elevation of downstream protein levels (p65, p-IRAK4, TRAF3) ([1]; dose-dependent, 0, 5, 50, 500 nM, 2 h)	TNF-α level in patient PBMCs [2]	retention volume of TLR8 (dimer stabilization in solution) (TLR8)
COc1ccc2c(-c3ccc(O)c(C)c3)ccnc2c1 [Compound 11a, 2-Methyl-4-(7-methoxyl-4-quinolinyl)-phenol]	inhibition	significant reduction	reversed	significantly suppressed	
Cc1cc(-c2ccnc3cc(O)ccc23)ccc1O [Compound 11b, 2-Methyl-4-(7-hydroxyl-4-quinolinyl)-phenol]	inhibition				smaller retention volume
